Data taken from US6251917A, “Benzamidoaldehydes and their use as cysteine protease inhibitors” (BASF Aktiengesellschaft, priority 1996, dated 2001).

Target: T1, Human μ-calpain (Homo sapiens, UniProt P07384)
T1 construct: Human μ-calpain is isolated from erythrocytes; from tissue; host or cells: human erythrocytes
T1 sequence (P07384 1-714): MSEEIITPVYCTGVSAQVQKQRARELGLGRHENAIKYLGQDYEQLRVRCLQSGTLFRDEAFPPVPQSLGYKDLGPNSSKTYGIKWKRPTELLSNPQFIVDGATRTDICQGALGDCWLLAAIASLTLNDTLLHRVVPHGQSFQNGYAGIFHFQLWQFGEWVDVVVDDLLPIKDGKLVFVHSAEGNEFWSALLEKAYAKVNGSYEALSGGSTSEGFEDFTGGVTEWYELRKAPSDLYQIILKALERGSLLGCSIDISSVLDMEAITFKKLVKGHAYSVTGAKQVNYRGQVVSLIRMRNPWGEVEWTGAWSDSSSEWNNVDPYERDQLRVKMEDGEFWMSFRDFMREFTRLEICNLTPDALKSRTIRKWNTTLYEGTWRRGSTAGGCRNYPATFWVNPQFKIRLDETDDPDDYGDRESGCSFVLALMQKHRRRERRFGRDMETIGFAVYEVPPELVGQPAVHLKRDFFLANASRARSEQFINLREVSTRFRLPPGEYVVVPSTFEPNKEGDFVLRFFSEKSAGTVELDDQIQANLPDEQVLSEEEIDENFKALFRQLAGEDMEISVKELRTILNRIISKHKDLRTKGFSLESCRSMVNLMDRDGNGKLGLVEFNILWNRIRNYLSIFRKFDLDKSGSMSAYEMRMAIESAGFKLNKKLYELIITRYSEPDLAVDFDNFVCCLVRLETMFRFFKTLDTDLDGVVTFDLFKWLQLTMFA
T1 sequence (P04632 1-268 partner): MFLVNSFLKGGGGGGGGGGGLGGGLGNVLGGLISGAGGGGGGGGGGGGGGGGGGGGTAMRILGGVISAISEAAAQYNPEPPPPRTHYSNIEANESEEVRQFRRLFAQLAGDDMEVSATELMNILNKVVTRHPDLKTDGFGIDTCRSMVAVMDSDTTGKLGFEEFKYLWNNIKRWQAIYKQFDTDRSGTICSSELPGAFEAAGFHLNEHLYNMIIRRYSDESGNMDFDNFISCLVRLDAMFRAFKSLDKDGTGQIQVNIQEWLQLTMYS
Assay: Calpain I and II test (fluorogenic substrate Suc-Leu-Tyr-AMC)
Assay type: biochemical
Protocol: The inhibitory properties of calpain inhibitors were studied in a buffer containing 50 mM of Tris-HCl, pH 7.5; 0.1 M of NaCl; 1 mM of dithiotreithol; 0.11 mM of CaCl2, using the fluorogenic calpain substrate Suc-Leu-Tyr-AMC (25 mM dissolved in DMSO, Bachem/Switzerland) (Sasaki et al. J. Biol. Chem. 1984, Vol. 259, 12489-12494). Human μ-calpain is isolated from erythrocytes similarly to the methods of Croall and DeMartino (BBA 1984, Vol. 788, 348-355) and Graybill et al. (Bioorg. & Med. Lett. 1995, Vol. 5, 387-392). After several chromatographic steps (DEAE-Sepharose, Phenyl-Sepharose, Superdex 200 and Blue-Sepharose), the enzyme is obtained in a purity of <[sic] 95%, according to SDS-PAGE, Western blot analysis and N-terminal sequencing. The fluorescence of the cleavage product 7-amino-4-methylcoumarin (AMC) is monitored in a Spex-Fluorolog fluorimeter at λex =380 nm an λem =460 nm. Over a measured range of 60 min, the cleavage of the substrate is linear and the autocatalytic activity of calpain is low when the experiments are carried out at 12° C. (see Chatterjee et al. 1996, Bioorg. & Med. Chem. Lett., Vol 6, 1619-1622). […]
In a typical experiment, 10 μl of substrate (250 μm final) and then 10 μl of μ-calpain (2 μg/ml final, i.e. 18 nM) are added to a 1 ml cuvette containing buffer. The calpain-mediated cleavage of the substrate is measured for 15 to 20 min. […]

effectiveness compared with N-(1-3-phenylpropan-1-al-2-yl)benzamide (comparison with literature compound (M. R. Angelastro et al., J. Med. Chem. 1990, 33, 11-13)): significantly more effective
Ki (reversible inhibition, 12° C., pH 7.5): < 500 nM
SMILES: O=C[C@H](Cc1ccccc1)NC(=O)c1ccccc1-c1ccccc1 [Example 30, (S)-2-Phenyl-N-(3-phenylpropan-1-al-2-yl)benzamide]
